Results taken from a melting point compilation (Tetko et al.).

SMILES	melting point
CC(C)C=C1NC(c2ccccc2)OC1=O (stereo not drawn)	87 °C
O[C@H]1CCC[C@@H]1O	55 °C
CCCC(C)(O)CCC	-82 °C
NC1CCCCCCCCCCC1	28 to 30 °C
Nc1ccc2c(c1)OCO2	38 to 43 °C
O=C1C=C(NCCNc2ccccc2)C(=O)c2ccccc21	140 to 142 °C
Cn1c(=O)c2c(nc(Cl)n2CC(=O)O)n(C)c1=O	198 to 199 °C
CCOC(=O)C(=NNc1ccccc1[N+](=O)[O-])C(C)=O	73 to 74 °C
C=C1CC(=CC)C(=O)OC2CCN3CC=C(COC(=O)C1(C)O)C23 (stereo not drawn)	218 °C
CC(=O)OC(CCC(=O)c1ccccc1)c1ccccc1 (stereo not drawn)	73 °C
CC(=O)C1CCC2C3CC=C4CC(O)CCC4(C)C3CCC12C (stereo not drawn)	193 °C
Brc1ccc(-c2c(Br)c(Br)c(Br)c(Br)c2Br)c(Br)c1Br	225 °C
CCN(CC)C(=O)C1C=C2c3cccc4[nH]cc(c34)CC2N(C)C1 (stereo not drawn)	82.5 °C
Fc1cccc(C(F)(F)F)c1	-81.5 °C
O=C(NC(Cc1c[nH]c2ccccc12)C(=O)O)OCc1ccccc1 (stereo not drawn)	124 °C
Cc1ccc2c(ccc3cc4ccccc4cc32)c1	156 °C
Cc1ccc(Cl)cc1C(=O)O	168 to 170 °C
CC1CCCC(C)N1C(=O)COC(=O)c1ccccc1 (stereo not drawn)	118 °C
Cn1c(=O)c(C2=NNC(=O)C2=Cc2cccc(Cl)c2)c(O)c2ccccc21	265 °C
O=C(NN=CC=Cc1ccc([N+](=O)[O-])o1)c1ccc([N+](=O)[O-])s1	236 °C
CC1=C(CC(=O)O)c2cc(F)ccc2C1=Cc1ccc(S(C)=O)cc1 (stereo not drawn)	184 °C
Oc1ccc(C2CCCC2)cc1	65 °C
CCCCNCC	-78 °C

SMILES	melting point
N#Cc1conc1N	140 °C
NC(=O)C=CC(=O)O	172 °C
NC(=S)c1cccc(I)c1	120 to 124 °C
Clc1cc2c(c(Cl)c1Cl)Oc1c(Cl)c(Cl)c(Cl)c(Cl)c1O2	264 °C
O=C1CCCCCC1=O	-40 °C
Cc1cc(C)c2c(=O)n3c(cc2c1)CCCC3	62 °C
Cc1cc(C(F)(F)F)n2nc(N)c(/N=N/c3c(Br)cc(Br)cc3Br)c2n1	98 to 100 °C
C1CCCNCCC1	29 °C
CCCCCCCC(=O)OCCCCCC	-30.6 °C
CCN(CC)CCOCc1cc(Br)cc(Br)c1OC	< 25 °C
CC(C)(C)OC(=O)N[C@H](C(=O)O)c1ccc(F)cc1	130 °C
Cc1cc(CS)c(CS)cc1C	64 to 69 °C
O=[N+]([O-])C=Cc1ccc2c(c1)OCO2	159 to 163 °C
CC12CCC(O)CC1CCC1C2CC(O)C2(C)C(C3=CC(=O)OC3)CCC12O (stereo not drawn)	222 °C
CCCCCCCCCCCCCCCC(=O)OCCCC	16.9 °C
OCc1ccc(Cn2cncn2)cc1	68 to 70 °C
OCc1ccc(-c2ccco2)s1	56 to 57 °C
O=[N+]([O-])c1ccc(Br)cc1C(F)(F)F	34 °C
CCCCCCCCc1ccc(NC(=O)Oc2ccc(OC)cc2)cc1	133 °C
CCOC(=O)c1sc(C)nc1-c1ccccc1	44 to 47 °C
CN1CCN(C)c2cc(C#N)ccc21	80 to 82 °C
CCCOc1ccc(C(=O)O)cc1	145 °C
CC1CCC2(OC1)OC1CC3C4CCC5CC(O)CCC5(C)C4CC(=O)C3(C)C1C2C (stereo not drawn)	266 °C

SMILES	melting point
COc1cc2c(cc1OC)C(=O)C2	141 °C
CN(N=O)c1ccccc1	14.7 °C
Cc1nc(-c2ccccc2)sc1N=C=O	82 to 83 °C
CCCCCCCCCCCCCCCCCCOP1OCC2(CO1)COP(OCCCCCCCCCCCCCCCCCC)OC2 (stereo not drawn)	41.5 °C
Cc1sc(-c2ccncc2)nc1-c1ccccc1	84 °C
CCC(O)(CC)C1(C)CCC(C(=O)O)C(C)(C)O1 (stereo not drawn)	138 °C
O=C(O)/C(=C/c1ccccc1[N+](=O)[O-])c1ccc([N+](=O)[O-])cc1	184 °C
CCCc1ccc(NC(C)=O)cc1	98 to 100 °C
CCCCCCCCCCOC(=O)CCCCCCCCC	9.7 °C
CC(C)(c1cc(Cl)c(O)c(Cl)c1)c1cc(Cl)c(O)c(Cl)c1	135 °C
O=Cc1ccc(F)cc1	-10 °C
Brc1cncc(-c2nnn[nH]2)c1	226 °C
OCc1ccco1	-14.6 °C
CC(=O)NCC1(c2ccccc2)CCN(CCCC(=O)c2ccc(F)cc2)CC1	98.5 °C
O=[N+]([O-])c1c2c(c([N+](=O)[O-])c3c1CCCN3)NCCC2	187 °C
Nc1ccc(N2CCOCC2)cc1	130 to 131 °C
CCCCCCCCCCc1ccc(C(C)=O)cc1	33 to 35 °C
Nc1ccc2ccc3ccccc3c2c1	143 °C
O=C(Nc1ccccc1/C=C/c1ccccc1)c1ccccc1	168 °C
O=C(O)Cc1cccs1	63 °C
CCCCCCCC(=O)Oc1ccc(/N=N/c2ccc(CCCC)cc2)cc1	63 to 64.2 °C
CCN1C(=O)CCC1=O	26 °C
O=C1Nc2ccccc2CCC1Br (stereo not drawn)	164 to 168 °C

SMILES	melting point
CC1=NN(c2ccc([N+](=O)[O-])cc2)C(=O)C1[N+](=O)[O-] (stereo not drawn)	119 °C
NS(=O)(=O)c1cc(Cl)sc1Cl	131 to 133 °C
c1ccc(/N=N/c2ccccc2/N=N/c2ccccc2)cc1	111 °C
O=C(Nc1cccc([N+](=O)[O-])c1)Nc1cccc([N+](=O)[O-])c1	234 °C
O=C(O)c1c(Br)cc(Br)c(O)c1Br	147 °C
C=C(C)C(=O)CC	-69.5 °C
NC(=S)Nc1cccc(Cl)c1	137 to 138 °C
Cc1ccc(O)c2c1CCC2	82 to 83 °C
Cc1cccc(Cc2ccccc2)c1	-28 °C
N#CC1(C#N)C2COC(C3=C2CCCC3)C1(C#N)C#N (stereo not drawn)	173 °C
CSCCC=O	-58 °C
COc1ccc(O)c2ccccc12	129 °C
Cn1c(=O)c(C2=NNC(=O)C2=NNc2ccc(Cl)cc2)c(O)c2ccccc21	240 °C
FCF	-136 °C
S=c1oc(-c2cc3ccccc3o2)nn1CCl	300 °C
COc1c(Cl)c(Cl)c(O)c(Cl)c1Cl	116 °C
Cn1ccc(C(=O)O)n1	154 °C
Nc1ccc(SC(F)(F)F)c(Cl)c1	43 °C
NS(=O)(=O)c1cc(Cl)ccc1F	135 °C
Nc1ccc2nsnc2c1	112 to 114 °C
O=[N+]([O-])c1cccc(-c2nnc3n2NC(c2ccc(Cl)cc2)S3)c1 (stereo not drawn)	199 °C
O=C(c1ccccc1)c1cccc(C(=O)c2ccccc2)c1	98.5 °C
CC(=O)n1c(C)c(C)c2ccccc21	74 °C

SMILES	melting point
Brc1cccc(Br)c1Br	87.5 °C
N#CC1CCCCC1	11 °C
CC(C)n1cc(C(N)=S)c(=O)n(Cc2ccccc2)c1=O	173 to 175 °C
NCc1cccc(-c2ccsc2)c1	80 °C
O=C(O)CCNC(=O)OCC1c2ccccc2-c2ccccc21	144 to 148 °C
O=C(NC1CCCCC1)C(Br)(C(F)(F)F)C(F)(F)F	87 °C
CC1CC(O)CC(C)(C)C1 (stereo not drawn)	55.8 °C
Nc1ccc(-c2cccs2)nc1	144 to 145 °C
Clc1cc2c(cc1Cl)Oc1c(cc(Cl)c(Cl)c1Cl)O2	240 °C
N#C/C(=N/Nc1ccccc1)c1nc(-c2ccc(Cl)cc2)cs1	178 °C
O=C(C=Cc1ccsc1)c1ccccc1	88 °C
O=C(O)CCN1C(=O)C=CC1=O	104 °C
NS(=O)(=O)c1ccc(SCCCCO)c(F)c1	104 °C
CCOc1ccc(NC(=O)CC(C)O)cc1 (stereo not drawn)	160 °C
COc1cc(C(=O)O)cc(Cl)c1O	245 °C
CC(=O)n1nc2oc3ccccc3cc-2c1=O	170 °C
CO[C@@H](C)[C@H](N)C(=O)O	220 to 224 °C
CCOC(=O)c1cncc(Br)c1	41 °C
O=[N+]([O-])c1cc([N+](=O)[O-])c(/C=C/c2ccc3c(c2)OCO3)cc1/C=C\c1ccc2c(c1)OCO2	215 °C
O=C(NCC(c1ccccc1)c1ccccc1)c1ccccc1	123 °C
CCCCC(C)(O)CC (stereo not drawn)	-83 °C
O=C(O)COc1ccccc1Br	141 to 145 °C
C=CCSc1ncccc1C(=O)O	147 to 149 °C

SMILES	melting point
CC(=O)Nc1ccc(S(N)(=O)=O)cc1	220 °C
C[Si](C)(O)c1ccc([Si](C)(C)O)cc1	135 °C
c1ccc2c(c1)CC1c3ccccc3CCN1C2 (stereo not drawn)	85 °C
O=C1CCCCCCCCC1=O	40.5 °C
Cc1ccc(C(=O)CCC(=O)O)cc1	129 °C
O=[N+]([O-])c1cc(N=C=S)ccc1Cl	66 °C
Cc1cncc(C#N)c1	84 °C
Sc1ccc(Cl)cc1	61 °C
FC(F)(F)C(F)(F)C(F)(F)C(F)(F)C(F)(F)C(F)(F)C(F)(F)C(F)(F)CCI	82.5 °C
NC(=O)c1sc(Nc2ccccc2)nc1N	205 °C
CCc1c(C(=O)O)c(=O)cnn1-c1ccc(Cl)cc1	269 °C
OCCN1CCCCC1C(c1ccccc1)c1ccccc1 (stereo not drawn)	106 °C
CC(=O)C1(O)CCC2C3CC(C)C4=CC(=O)C=CC4(C)C3(F)C(O)CC21C (stereo not drawn)	297 °C
CC(=O)c1nn(-c2ccccc2[N+](=O)[O-])c(=N)s1	186 °C
CCCCCCCCCCCCCCCCCC#N	41 °C
O=C(O)C=CCCl	83 °C
CC(CCC(C(=O)O)C(C)C)C(=O)O (stereo not drawn)	104 °C
CSc1sc(C(=O)O)c(-c2cccc(C(F)(F)F)c2)c1C#N	232 to 234 °C
